Each structure is given as a SMILES string.

In general, melting point refers to the temperature, or range, at which the solid turns liquid.

In the case of `Cc1ccc(C(=O)C2=C(O)C(=O)N(c3ncnc4[nH]ncc34)C2c2cccc([N+](=O)[O-])c2)o1` (centres unmarked) [Compound 225], the melting point lay in the range of 222 to 223 °C.

In turn, `Cc1ccc(C(=O)C2=C(O)C(=O)N(c3nc4cccnc4s3)C2c2ccccc2F)o1` (centres unmarked) [Compound 245] displayed a melting point of 227 to 229 °C. `Cc1ccc(C(=O)C2=C(O)C(=O)N(c3nc4cccnc4s3)C2c2cccc(C#N)c2)o1` (centres unmarked) [Compound 246] gave a melting point of 251 to 252 °C.

For the molecule `Cc1ccc(C(=O)C2=C(O)C(=O)N(c3nc4cccnc4s3)C2c2ccc3c(c2)OCO3)o1` (centres unmarked) [Compound 247], the melting point was 248 to 249 °C. The figure for `Cc1ccc(C(=O)C2=C(O)C(=O)N(c3nc4cccnc4s3)C2c2ccc(O)c(C(=O)O)c2)o1` (centres unmarked) [Compound 248] is 243 to 245 °C; for `COC(=O)c1cccc(C2C(C(=O)c3ccc(C)o3)=C(O)C(=O)N2c2nc3cccnc3s2)c1` (centres unmarked) [Compound 249] it is 220 to 221 °C; for `CCOc1ccc2nc(N3C(=O)C(O)=C(C(=O)c4ccc(C)o4)C3c3sc4ccccc4c3C)sc2c1` (centres unmarked) [Compound 250] it is 227 to 228 °C. The figure for `CCOc1ccc2nc(N3C(=O)C(O)=C(C(=O)c4ccc(C)o4)C3c3ccc4c(c3)OCO4)sc2c1` (centres unmarked) [Compound 251] is 230 to 231 °C. The same measure for `CCOc1ccc2nc(N3C(=O)C(O)=C(C(=O)c4ccc(C)o4)C3c3ccc4ccccc4n3)sc2c1` (centres unmarked) [Compound 252]: 260 to 261 °C; for `CCOc1ccc2nc(N3C(=O)C(OC(C)=O)=C(C(=O)c4ccc(C)o4)C3c3ccc(OCCOC(C)=O)cc3)sc2c1` (centres unmarked) [Compound 253]: 114 to 115 °C. `CCOc1ccc2nc(N3C(=O)C(O)=C(C(=O)c4ccc(C)o4)C3c3ccc(O)c(C(=O)O)c3)sc2c1` (centres unmarked) [Compound 254]: the melting point was 251 to 252 °C. As for `CCOc1ccc2nc(N3C(=O)C(O)=C(C(=O)c4ccc(C)o4)C3c3cccc(C(=O)OC)c3)sc2c1` (centres unmarked) [Compound 255], the melting point lay within 228 to 229 °C. The same measure for `CCOc1ccc2nc(N3C(=O)C(O)=C(C(=O)c4ccc(C)o4)C3c3ccc(-c4cccc([N+](=O)[O-])c4)o3)sc2c1` (centres unmarked) [Compound 256]: 187 to 188 °C. The figure for `CCOc1ccc2nc(N3C(=O)C(O)=C(C(=O)c4ccc(C)o4)C3c3cccs3)sc2c1` (centres unmarked) [Compound 257] is 235 to 236 °C; for `Cc1ccc(C(=O)C2=C(O)C(=O)N(c3nc(N4CCOCC4)c4nc[nH]c4n3)C2c2ccccc2)o1` (centres unmarked) [Compound 283] it is 291 to 292 °C. In the case of `Cc1ccc(C(=O)C2=C(O)C(=O)N(c3nc(N4CCOCC4)c4nc[nH]c4n3)C2c2cccc([N+](=O)[O-])c2)o1` (centres unmarked) [Compound 284], the melting point was 280 to 282 °C. The figure for `Cc1ccc(C(=O)C2=C(O)C(=O)N(c3nc(N4CCOCC4)c4nc[nH]c4n3)C2c2ccccc2F)o1` (centres unmarked) [Compound 285] is 297 to 299 °C. Take `CC(=O)C1=C(O)C(=O)N(c2nc3ccc(Cl)cc3s2)C1c1ccc(F)cc1` (centres unmarked) [Compound 420]: the melting point lay in the range of 238 to 239 °C. The figure for `CC(C)(C)C(=O)C1=C(O)C(=O)N(c2nc3ccc(Cl)cc3s2)C1c1ccc(F)cc1` (centres unmarked) [Compound 421] is 239 to 240 °C; for `CCOC(=O)C1=C(O)C(=O)N(c2nc3ccc(Cl)cc3s2)C1c1ccc(F)cc1` (centres unmarked) [Compound 422] it is 236 to 237 °C. The same measure for `CC(=O)C1=C(O)C(=O)N(c2nc3ccc(F)cc3s2)C1c1ccc(F)cc1` (centres unmarked) [Compound 423]: 238 to 239 °C; for `CC(C)(C)C(=O)C1=C(O)C(=O)N(c2nc3ccc(F)cc3s2)C1c1ccc(F)cc1` (centres unmarked) [Compound 424]: 232 to 233 °C; for `CCOC(=O)C1=C(O)C(=O)N(c2nc3ccc(F)cc3s2)C1c1ccc(F)cc1` (centres unmarked) [Compound 425]: 218 to 219 °C. For `CC(=O)C1=C(O)C(=O)N(c2nc3c(Cl)cccc3s2)C1c1ccc(F)cc1` (centres unmarked) [Compound 426], the melting point is 231 to 232 °C. Molecule `CC(=O)C1=C(O)C(=O)N(c2nc3ccc(Cl)cc3s2)C1c1ccccc1F` (centres unmarked) [Compound 429] registered a melting point of 255 to 256 °C.

For `COC1=C(C(C)=O)C(c2ccccc2F)N(c2nc3ccc(Cl)cc3s2)C1=O` (centres unmarked) [Compound 430], the melting point fell in the range of 235 to 236 °C. The figure for `CCOC1=C(C(=O)c2ccc(C)o2)C(c2ccc(O)cc2)N(c2nc3ccccc3n2C)C1=O` (centres unmarked) [Compound 431] is 254 to 255 °C; for `Cc1ccc(C(=O)C2=C(O)C(=O)N(C3CCCCC3)C2c2ccccc2F)o1` (centres unmarked) [Compound 432] it is 195 to 196 °C. For `Cc1ccc(C(=O)C2=C(O)C(=O)N(C3CCC(O)CC3)C2c2ccccc2F)o1` (centres unmarked) [Compound 433], the melting point was 204 to 206 °C. The figure for `Cc1ccc(C(=O)C2=C(O)C(=O)N(C(CO)CO)C2c2ccccc2F)o1` (centres unmarked) [Compound 434] is 74 to 75 °C; for `O=C(C1=C(O)C(=O)N(c2nc3ccc(Cl)cc3s2)C1c1ccccc1F)c1nccs1` (centres unmarked) [Compound 435] it is 309 to 310 °C; for `O=C(C1=C(O)C(=O)N(c2nc3ccc(Cl)cc3s2)C1c1ccc(F)cc1)c1nccs1` (centres unmarked) [Compound 436] it is 310 to 311 °C. In turn, `O=C(C1=C(O)C(=O)N(c2nc3ccc(F)cc3s2)C1c1ccccc1F)c1nccs1` (centres unmarked) [Compound 437] displayed a melting point of 298 to 299 °C.

As to `O=C(C1=C(O)C(=O)N(c2nc3ccc(F)cc3s2)C1c1ccc(F)cc1)c1nccs1` (centres unmarked) [Compound 438], the melting point was in the range of 320 to 321 °C. Consider `O=C(C1=C(O)C(=O)N(c2nc3c(Cl)cccc3s2)C1c1ccccc1F)c1nccs1` (centres unmarked) [Compound 439], for which the melting point was in the range of 320 to 321 °C. The same measure for `O=C(C1=C(O)C(=O)N(c2nc3c(Cl)cccc3s2)C1c1ccc(F)cc1)c1nccs1` (centres unmarked) [Compound 440]: 303 to 304 °C; for `COCC(=O)C1=C(O)C(=O)N(c2nc3ccc(Cl)cc3s2)C1c1ccccc1F` (centres unmarked) [Compound 441]: 253 to 254 °C; for `COCC(=O)C1=C(O)C(=O)N(c2nc3ccc(Cl)cc3s2)C1c1ccc(F)cc1` (centres unmarked) [Compound 442]: 263 to 264 °C. The figure for `COCC(=O)C1=C(O)C(=O)N(c2nc3ccc(F)cc3s2)C1c1ccccc1F` (centres unmarked) [Compound 443] is 228 to 229 °C.

`COCC(=O)C1=C(O)C(=O)N(c2nc3ccc(F)cc3s2)C1c1ccc(F)cc1` (centres unmarked) [Compound 444] showed a melting point of 249 to 250 °C. In turn, `COCC(=O)C1=C(O)C(=O)N(c2nc3c(Cl)cccc3s2)C1c1ccccc1F` (centres unmarked) [Compound 445] registered a melting point of 231 to 233 °C. In the case of `O=C(COc1ccccc1)C1=C(O)C(=O)N(c2nc3ccc(Cl)cc3s2)C1c1ccccc1F` (centres unmarked) [Compound 446], the melting point fell in the range of 218 to 219 °C. The figure for `O=C(COc1ccccc1)C1=C(O)C(=O)N(c2nc3ccc(Cl)cc3s2)C1c1ccc(F)cc1` (centres unmarked) [Compound 447] is 203 to 204 °C; for `O=C(COc1ccccc1)C1=C(O)C(=O)N(c2nc3ccc(F)cc3s2)C1c1ccccc1F` (centres unmarked) [Compound 448] it is 197 to 198 °C.

On to `O=C(COc1ccccc1)C1=C(O)C(=O)N(c2nc3c(Cl)cccc3s2)C1c1ccccc1F` (centres unmarked) [Compound 449], for which the melting point is 131 to 133 °C. `O=C(COc1ccccc1)C1=C(O)C(=O)N(c2nc3c(Cl)cccc3s2)C1c1ccc(F)cc1` (centres unmarked) [Compound 450] came in with a melting point of 204 to 206 °C. The figure for `O=C(C1=C(O)C(=O)N(c2nc3ccc(Cl)cc3s2)C1c1ccccc1F)C1CC1` (centres unmarked) [Compound 451] is 246 to 247 °C; for `O=C(C1=C(O)C(=O)N(c2nc3ccc(Cl)cc3s2)C1c1ccc(F)cc1)C1CC1` (centres unmarked) [Compound 452] it is 229 to 230 °C. With `O=C(C1=C(O)C(=O)N(c2nc3ccc(Cl)cc3s2)C1c1ccc(Cl)cc1)C1CC1` (centres unmarked) [Compound 453], the melting point was 245 to 246 °C.

The molecule `O=C(C1=C(O)C(=O)N(c2nc3ccc(F)cc3s2)C1c1ccccc1F)C1CC1` (centres unmarked) [Compound 454] came in with a melting point of 234 to 235 °C. The figure for `O=C(C1=C(O)C(=O)N(c2nc3ccc(F)cc3s2)C1c1ccc(F)cc1)C1CC1` (centres unmarked) [Compound 455] is 221 to 223 °C.

In turn, `O=C(C1=C(O)C(=O)N(c2nc3c(Cl)cccc3s2)C1c1ccccc1F)C1CC1` (centres unmarked) [Compound 456] yielded a melting point of 253 to 254 °C.

In turn, `O=C(C1=C(O)C(=O)N(c2nc3c(Cl)cccc3s2)C1c1ccc(F)cc1)C1CC1` (centres unmarked) [Compound 457] returned a melting point of 218 to 219 °C. The figure for `O=C(COc1ccccc1Cl)C1=C(O)C(=O)N(c2nc3ccc(Cl)cc3s2)C1c1ccc(F)cc1` (centres unmarked) [Compound 458] is 196 to 197 °C; for `O=C(COc1ccccc1Cl)C1=C(O)C(=O)N(c2nc3ccc(F)cc3s2)C1c1ccc(F)cc1` (centres unmarked) [Compound 459] it is 234 to 235 °C; for `O=C(COc1ccccc1Cl)C1=C(O)C(=O)N(c2nc3c(Cl)cccc3s2)C1c1ccc(F)cc1` (centres unmarked) [Compound 460] it is 143 to 145 °C.

The molecule `Cc1ccc(C(=O)C2=C(O)C(=O)N(c3nc4ccc(Cl)cc4s3)C2c2ccc(F)c(F)c2)o1` (centres unmarked) [Compound 461, 1-(6-Chlorobenzo[d]thiazol-2-yl)-5-(3,4-difluorophenyl)-3-hydroxy-4-(5-methylfuran-2-carbonyl)-1H-pyrrol-2(5H)-one] came in with a melting point of 235 to 236 °C. As to `Cc1ccc(C(=O)C2=C(O)C(=O)N(c3nc4ccc(F)cc4s3)C2c2ccc(F)c(F)c2)o1` (centres unmarked) [Compound 462], the melting point lay within 223 to 224 °C. `Cc1ccc(C(=O)C2=C(O)C(=O)N(c3nc4c(Cl)cccc4s3)C2c2ccc(F)c(F)c2)o1` (centres unmarked) [Compound 463] registered a melting point of 269 to 270 °C. Take `Cc1ccc(C(=O)C2=C(O)C(=O)N(c3nc4ccc(Cl)cc4s3)C2c2ccc(-c3ccccc3)cc2)o1` (centres unmarked) [Compound 464]: the melting point was in the range of 244 to 245 °C. The same measure for `Cc1ccc(C(=O)C2=C(O)C(=O)N(c3nc4ccc(F)cc4s3)C2c2ccc(-c3ccccc3)cc2)o1` (centres unmarked) [Compound 465]: 228 to 231 °C. The same measure for `Cc1ccc(C(=O)C2=C(O)C(=O)N(c3nc4c(Cl)cccc4s3)C2c2ccc(-c3ccccc3)cc2)o1` (centres unmarked) [Compound 466]: 222 to 223 °C.

The record behind these values is patent US20110130397A1, “PYRROLINONE COMPOUNDS AS INHIBITORS OF BACTERIAL PEPTIDYL TRNA HYDROLASE AND USES THEREOF” (priority 2006, published 2011).
